From ChEMBL document CHEMBL1137964, “Synthesis and biological evaluation of 6-aryl-6H-pyrrolo[3,4-d]pyridazine derivatives: high-affinity ligands to the alpha 2 delta subunit of voltage gated calcium channels” (Bioorg Med Chem Lett, 2004)

What was measured:
[1] = target: Voltage-dependent calcium channel subunit alpha-2/delta-1 (Homo sapiens, UniProt P54289); experiment: Binding affinity for huamn alpha2-delta1 subunit of voltage gated calcium channel over-expressed in A710 cell membranes using [3H]-gabapentin
Sequence of Voltage-dependent calcium channel subunit alpha-2/delta-1 (P54289 25-956 limits assumed): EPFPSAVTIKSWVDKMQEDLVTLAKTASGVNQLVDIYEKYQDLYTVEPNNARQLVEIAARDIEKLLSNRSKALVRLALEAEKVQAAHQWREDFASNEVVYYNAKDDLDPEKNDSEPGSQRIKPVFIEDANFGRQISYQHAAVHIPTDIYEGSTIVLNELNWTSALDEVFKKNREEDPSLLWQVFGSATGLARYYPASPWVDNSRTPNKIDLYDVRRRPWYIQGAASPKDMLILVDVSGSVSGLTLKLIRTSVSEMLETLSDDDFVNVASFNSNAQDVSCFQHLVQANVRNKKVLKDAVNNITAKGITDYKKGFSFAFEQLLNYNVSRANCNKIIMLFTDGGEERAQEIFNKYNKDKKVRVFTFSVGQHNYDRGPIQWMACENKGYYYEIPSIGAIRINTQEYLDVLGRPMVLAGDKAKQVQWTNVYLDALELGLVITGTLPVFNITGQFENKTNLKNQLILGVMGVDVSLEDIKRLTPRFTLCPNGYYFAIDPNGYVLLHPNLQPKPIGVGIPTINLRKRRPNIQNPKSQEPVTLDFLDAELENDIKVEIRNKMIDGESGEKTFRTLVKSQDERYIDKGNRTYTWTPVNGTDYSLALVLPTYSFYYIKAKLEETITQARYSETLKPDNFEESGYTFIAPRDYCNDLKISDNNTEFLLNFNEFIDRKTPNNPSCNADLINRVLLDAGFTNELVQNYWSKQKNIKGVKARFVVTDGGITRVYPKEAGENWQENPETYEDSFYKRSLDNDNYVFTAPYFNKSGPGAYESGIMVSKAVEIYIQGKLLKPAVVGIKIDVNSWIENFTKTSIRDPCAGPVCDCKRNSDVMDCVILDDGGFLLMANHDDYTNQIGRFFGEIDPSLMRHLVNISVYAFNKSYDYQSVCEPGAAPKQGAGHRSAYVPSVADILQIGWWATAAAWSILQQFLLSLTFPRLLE
Sequence of Voltage-dependent calcium channel subunit alpha-2/delta-1 (P54289 957-1103 limits assumed): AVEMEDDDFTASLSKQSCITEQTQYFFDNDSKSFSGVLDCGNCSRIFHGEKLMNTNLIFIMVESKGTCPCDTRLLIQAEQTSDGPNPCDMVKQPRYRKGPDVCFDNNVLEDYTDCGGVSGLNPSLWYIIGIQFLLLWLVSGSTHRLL

[2] = Volume of distribution at steady state was determined in rats at 2 mg/kg, i.v. dose; assay type: ADME, organism-based; parameters: dose 2 mg/kg, route intravenous; conditions: rat, in vivo, iv, read-out: Vdss
[3] = Maximum plasma concentration in rats at 20mg/kg, i.p. dose; assay type: ADME, organism-based; parameters: dose 20 mg/kg, route intraperitoneal; conditions: rat, ip
[4] = Half-life period was determined in rats at 2 mg/kg, i.v. dose; assay type: ADME, organism-based; parameters: dose 2 mg/kg, route intravenous; conditions: rat, in vivo, iv
[5] = Half-life period was determined in rats at 20 mg/kg, i.p. dose; assay type: ADME, organism-based; parameters: dose 20 mg/kg, route intraperitoneal; conditions: rat, in vivo, ip
[6] = Bioavailability was determined in rats at 10 mg/kg, p.o. dose; assay type: ADME, organism-based; conditions: rat, in vivo, po
[7] = Plasma concentration was determined in rats at 2 mg/kg, i.v. dose; assay type: ADME, organism-based; parameters: dose 2 mg/kg, route intravenous; conditions: rat, iv
[8] = Plasma concentration was determined in rats at 20 mg/kg, i.p. dose; assay type: ADME, organism-based; parameters: dose 20 mg/kg, route intraperitoneal; conditions: rat, ip
[9] = Plasma clearance rate was determined in rats at 2 mg/kg, i.v. dose; assay type: ADME, organism-based; parameters: dose 2 mg/kg, route intravenous; conditions: rat, iv, read-out: Clp
Rattus norvegicus [10] = experiment: Time required by compound for reaching maximum plasma concentration was determined in rats at 10 mg/kg, p.o. dose; assay type: ADME, organism-based; parameters: dose 10 mg/kg, route oral; conditions: in vivo, po
[11] = Plasma concentration was determined in rats at 10 mg/kg, p.o. dose; assay type: ADME, organism-based; parameters: dose 10 mg/kg, route oral; conditions: rat, po
[12] = Half-life period was determined in rats at 10 mg/kg, p.o. dose; assay type: ADME, organism-based; parameters: dose 10 mg/kg, route oral; conditions: rat, in vivo, po
[13] = Maximum plasma concentration in rats at 10 mg/kg, p.o. dose; assay type: ADME, organism-based; parameters: dose 10 mg/kg, route oral; conditions: rat, po
Rattus norvegicus [14] = experiment: Time required by compound for reaching maximum plasma concentration was determined in rats at 20 mg/kg, i.p. dose; assay type: ADME, organism-based; parameters: dose 20 mg/kg, route intraperitoneal; conditions: in vivo, ip

| Compound | IC50 [1] [nM] | further results |
| --- | --- | --- |
| CCOc1ccc(-n2c(C)c3c(C)nnc(-c4ccccc4Cl)c3c2C)cc1 | 4370 |  |
| CCOc1ccc(-n2c(C)c3c(C)nnc(CC(C)CC(C)(C)C)c3c2C)cc1 (stereo not drawn) | 577 |  |
| COc1ccc(-n2c(C)c3c(C)nnc(C)c3c2C)cc1 | > 10000 |  |
| CCOc1ccc(-n2c(C)c3c(C)nnc(-c4ccc(OC(F)(F)F)cc4)c3c2C)cc1 | 1730 |  |
| CCOc1ccc(-n2c(C)c3c(C)nnc(-c4cccc(Cl)c4)c3c2C)cc1 | 1600 |  |
| CCOc1ccc(-n2c(C)c3c(C)nnc(-c4ccc(-c5ccccc5)cc4)c3c2C)cc1 | 1260 |  |
| CCOc1ccc(-n2c(C)c3c(C)nnc(CC4CCCC4)c3c2C)cc1 | 211 |  |
| CCOc1ccc(-n2c(C)c3c(C)nnc(OC)c3c2C)cc1 | 2180 |  |
| CCOc1ccc(-n2c(C)c3c(C)nnc(-c4ccc(Cl)cc4)c3c2C)cc1 | 701 |  |
| CCOc1ccc(-n2c(C)c3c(C)nnc(-c4ccc(OC)cc4OC)c3c2C)cc1 | 597 |  |
| CCOc1ccc(-n2c(C)c3c(C)nnc(Nc4ccc(N)cc4)c3c2C)cc1 | > 10000 |  |
| CCOc1ccc(-n2c(C)c3c(C)nnc(-c4ccc(F)cc4)c3c2C)cc1 | 528 |  |
| CCOc1ccc(-n2c(C)c3c(C)nnc(-c4ccccc4OC)c3c2C)cc1 | 737 |  |
| CCOc1ccccc1-n1c(C)c2c(C)nnc(C)c2c1C | 1850 |  |
| CCOc1ccc(-n2c(C)c3c(C)nnc(Nc4ccncc4)c3c2C)cc1 | > 10000 |  |
| CCOc1cccc(-n2c(C)c3c(C)nnc(C)c3c2C)c1 | > 10000 |  |

Second part, led by results:

| IC50 [1] [nM] | Compound | further results |
| --- | --- | --- |
| 107 | CCOc1ccc(-n2c(C)c3c(C)nnc(-c4ccc(CC)cc4)c3c2C)cc1 |  |
| 440 | CCOc1ccc(-n2c(C)c3c(C)nnc(Nc4ccc(OC)cc4)c3c2C)cc1 |  |
| 360 | CCCCCc1nnc(C)c2c(C)n(-c3ccc(OCC)cc3)c(C)c12 |  |
| 148 | CCOc1ccc(-n2c(C)c3c(C)nnc(CCC4CCCC4)c3c2C)cc1 |  |
| 240 | CCOc1ccc(-n2c(C)c3c(C)nnc(Nc4ccc(C)cc4)c3c2C)cc1 |  |
| 170 | CCOc1ccc(-n2c(C)c3c(C)nnc(N(C)C)c3c2C)cc1 |  |
| 235 | CCOc1ccc(-n2c(C)c3c(C)nnc(C4CCCCC4)c3c2C)cc1 |  |
| 170 | CCOc1ccc(-n2c(C)c3c(C)nnc(C4CC4)c3c2C)cc1 |  |
| 335 | CCOc1ccc(-n2c(C)c3c(C)nnc(-c4cccc(OC)c4)c3c2C)cc1 |  |
| 180 | CCOc1ccc(-n2c(C)c3c(C)nnc(C)c3c2C)cc1 | Vd [2]: 1.3 L/kg; Cmax [3]: 101 µM; half-life [4]: 54.6 min; half-life [5]: 72 min; bioavailability [6]: 81%; AUC [7]: 6.4 µM·h; AUC [8]: 141 µM·h; clearance [9]: 18.5 mL/min/kg; T max (Rattus norvegicus [10]): 2.8 h; AUC [11]: 27 µM·h; half-life [12]: 270 min; Cmax [13]: 3.6 µM; T max (Rattus norvegicus [14]): 18 min |
| 171 | CCOc1ccc(-n2c(C)c3c(C)nnc(CC(C)C)c3c2C)cc1 |  |
| 86 | CCOc1ccc(-n2c(C)c3c(C)nnc(-c4ccc(C)cc4)c3c2C)cc1 |  |
| 263 | CCOc1ccc(-n2c(C)c3c(C)nnc(CCC(C)C)c3c2C)cc1 |  |
| 153 | CCOc1ccc(-c2nnc(C)c3c(C)n(-c4ccc(OCC)cc4)c(C)c23)cc1 |  |
| 75 | CCOc1ccc(-n2c(C)c3c(C)nnc(Nc4ccccc4)c3c2C)cc1 |  |
| 382 | CCOc1ccc(-n2c(C)c3c(C)nnc(-c4ccccc4)c3c2C)cc1 |  |
| 185 | CCOc1ccc(-n2c(C)c3c(C)nnc(C4CCCC4)c3c2C)cc1 |  |
| 250 | CCOc1ccc(-n2c(C)c3c(C)nnc(CC)c3c2C)cc1 |  |
| 40 | CCOc1ccc(-n2c(C)c3c(C)nnc(NC)c3c2C)cc1 |  |
